Test results as given in US12653186B2, “[(1-phenyl-5-(heteroaryl)-1H-1,2,4-triazol-3-yl)oxy] acetic acid derivatives as safeners for the protection of useful plants and crop plants” (BAYER AKTIENGESELLSCHAFT, priority 2020, dated 2026).

Legend:
[1] = tested on: summer wheat (TRZAS); assay: Reduction of damage by mesosulfuron-methyl on summer wheat (safener action, greenhouse, post-emergence); format: in vivo, summer wheat (TRZAS; cv. Triso); parameters: key: 0: no reduction in damage (appearance corresponding to the herbicide control); 1: slight reduction in damage; 2: distinct reduction in damage; 3: significant reduction in damage; 4: complete reduction in damage (appearance corresponding to the untreated control); conditions: then mesosulfuron-methyl 40-60 g/ha, visual assessment 9-13 days after application
Procedure: (§1) 2.1 Relative Action of Selected Compounds of the Invention Using the Example of Reduction of Damage by Mesosulfuron-Methyl on Summer Wheat (TRZAS) The seeds of the crop plants to be treated are laid out in sandy loam in plastic pots (diameter ˜4 cm), covered with soil and grown in a greenhouse under good conditions for germination and growth. The trial plants were treated at the early leaf stage (BBCH10-BBCH12). In the course of this, the inventive compounds of the general formula (I) formulated in the form of wettable powders (WP) were sprayed onto the above-ground parts of the plants as an aqueous suspension with a water application rate corresponding to 800 l/ha with addition of wetting agent (e.g. 0.2% Genapol-LRO or 0.2% Mero) in the specified dose. This was followed by the application of the herbicide. For this purpose, mesosulfuron-methyl, formulated in the form of water-dispersible granules (WG), was sprayed onto the above-ground parts of the plants in the form of an aqueous dispersion with a water application rate corresponding to 800 l/ha with addition of wetting agent (e.g. 0.2% Genapol-LRO or 1 l/ha Biopower) in a dose of 40-60 g/ha. The dose of the herbicide was chosen here such that it causes visually apparent damage (min. 30%, max. 75%) compared to untreated crop plants at the evaluation time on a control group of crop plants without safener treatment that were included in the same trial. After application, the plants were cultivated under good growth conditions in a greenhouse. 9-13 days after application, the efficacy of the test compounds was assessed visually. For this purpose, the appearance of the plants treated with the test compound and herbicide was compared to the corresponding herbicide controls (without safener; with clearly visible damage) and the untreated controls (without damage). The damage-reducing effect of the test compounds was expressed here in graded efficacy codes according to the following scheme: • 0: no reduction in damage (appearance corresponding to the herbicide control) • 1: slight reduction in damage • 2: distinct reduction in damage • 3: significant reduction in damage • 4: complete reduction in damage (appearance corresponding to the untreated control) The trials show clear efficacy of the inventive compounds selected by way of example with regard to the reduction in damage to the summer wheat crop plant (TRZAS; cv. Triso) caused by the herbicide mesosulfuron-methyl: […]

[2] = tested on: summer barley (HORVS); assay: Reduction of damage by mesosulfuron-methyl on summer barley (safener action, greenhouse, post-emergence); format: in vivo, summer barley (HORVS; cv. Montoya); parameters: key: 0: no reduction in damage (appearance corresponding to the herbicide control); 1: slight reduction in damage; 2: distinct reduction in damage; 3: significant reduction in damage; 4: complete reduction in damage (appearance corresponding to the untreated control); conditions: then mesosulfuron-methyl 40-60 g/ha, visual assessment 9-13 days after application, 2 repeats
Procedure: as §1, with “2.2 Relative Action” for “2.1 Relative Action”, “on Summer Barley (HORVS) The seeds” for “on Summer Wheat (TRZAS) The seeds”, “expressed here separately for 2 repeats in graded” for “expressed here in graded”, “the summer barley crop plant” for “the summer wheat crop plant”, “crop plant (HORVS; cv. Montoya)” for “crop plant (TRZAS; cv. Triso)”, “(HORVS; cv. Montoya) caused by” for “(TRZAS; cv. Triso) caused by”

SMILES	Efficacy of the safener (efficacy code) ([1]; safener 100 g/ha)	Efficacy of the safener (efficacy code) ([2]; safener 100 g/ha)	Efficacy of the safener (efficacy code) ([1]; safener 500 g/ha)	Efficacy of the safener (efficacy code) ([2]; safener 500 g/ha)
COC(=O)COc1nc(-c2ccc(F)cn2)n(-c2ccc(Cl)cc2)n1 [I.31-7]	2	2	–	–
CCOC(=O)COc1nc(-c2ccc(F)cn2)n(-c2ccc(F)cc2)n1 [I.32-4]	2	–	–	–
O=C(COc1nc(-c2ccc(Cl)cn2)n(-c2ccc(F)cc2F)n1)OCC1CC1 [I.80-38, Cyclopropylmethyl {[5-(5-chloropyridin-2-yl)-1-(2,4-difluorophenyl)-1H-1,2,4-triazol-3-yl]oxy}acetate]	2	–	–	–
O=C(O)COc1nc(-c2ccc(F)cn2)n(-c2ccc(F)cc2)n1 [I.33-4]	2	–	–	–
COCCOC(=O)COc1nc(-c2ccc(Cl)cn2)n(-c2ccc(F)cc2F)n1 [I.73-38]	–	2-3	–	–
COC(=O)COc1nc(-c2ccc(F)cn2)n(-c2ccc(F)cc2F)n1 [I.31-38]	2	–	–	–
COC(=O)COc1nc(-c2ncccc2F)n(-c2ccccc2)n1 [I.64-1]	2	–	2	2
O=C(COc1nc(-c2ccc(Cl)cn2)n(-c2ccc(F)cc2F)n1)OCC1CCOC1 (centres unmarked) [I.69-38]	–	2-3	–	–
CCOC(=O)COc1nc(-c2ccc(F)cn2)n(-c2ccc(F)cc2F)n1 [I.32-38]	2	2	–	–
CCOC(=O)COc1nc(-c2ccc(F)cn2)n(-c2ccc(Cl)cc2)n1 [I.32-7]	2	2-3	–	–
O=C(O)COc1nc(-c2ccc(Cl)cn2)n(-c2ccc(F)cc2F)n1 [I.30-38, {[5-(5-Chloropyridin-2-yl)-1-(2,4-difluorophenyl)-1H-1,2,4-triazol-3-yl]oxy}acetic acid]	2	2	–	–
COC(=O)COc1nc(-c2ccncc2Cl)n(-c2ccc(Cl)cc2F)n1 [I.43-49]	–	2	–	–
COC(=O)COc1nc(-c2ccc(Cl)cn2)n(-c2ccc(F)cc2F)n1 [I.28-38, Methyl {[5-(5-chloropyridin-2-yl)-1-(2,4-difluorophenyl)-1H-1,2,4-triazol-3-yl]oxy}acetate]	–	2	–	–
O=C(O)COc1nc(-c2ccc(F)cn2)n(-c2ccc(Cl)cc2F)n1 [I.33-49]	2	–	–	–
CCOC(=O)COc1nc(-c2ccc(F)cn2)n(-c2ccc(Cl)cc2F)n1 [I.32-49]	2	2	–	–
CCOC(=O)COc1nc(-c2ccc(Cl)cn2)n(-c2ccccc2F)n1 [I.29-2]	2	–	–	–
O=C(COc1nc(-c2ccc(Cl)cn2)n(-c2ccc(F)cc2F)n1)OCC1OCCO1 [I.70-38]	–	2	–	–
COC(=O)COc1nc(-c2ccc(Cl)cn2)n(-c2ccc(Cl)cc2F)n1 [I.28-49]	2	2	–	–
CCOC(=O)COc1nc(-c2ccc(Cl)cn2)n(-c2ccc(F)cc2F)n1 [I.29-38]	2	2	–	–
COC(=O)COc1nc(-c2ccc(F)cn2)n(-c2ccc(F)cc2Cl)n1 [I.31-48]	2	2	–	–
CCOC(=O)COc1nc(-c2ccc(F)cn2)n(-c2ccccc2F)n1 [I.32-2]	2	–	–	–
COC(=O)COc1nc(-c2ccc(F)cn2)n(-c2ccc(Cl)cc2F)n1 [I.31-49]	2	2	–	–
O=C(COc1nc(-c2ccc(Cl)cn2)n(-c2ccc(F)cc2F)n1)OCC1CCCO1 (centres unmarked) [I.68-38]	2	2	–	–
COC(=O)CCOC(=O)COc1nc(-c2ccc(Cl)cn2)n(-c2ccc(F)cc2F)n1 [I.67-38]	2	–	–	–
COC(=O)COc1nc(-c2ncccc2F)n(-c2ccc(Cl)cc2F)n1 [I.64-49]	–	–	2	2
